Experimental data taken from patent US20080233202A1, “Fungicidal Compositions” (priority 2004, published 2008).

Assays:
Botrytis cinerea spores = assay: Spore germination inhibition, 96-multiwell assay; type: cell-based; set-up: key: ****: No germination (score 4); ***: Slight germination (3); **: Moderate germination (2); *: Germination, less than control (1); —: No activity = germination same as the control (score 0); settings: after 24 hours incubation at 19° C.
Method: (§1) The effect of selected treatments on the germination of three other important horticultural fungi, Botrytis cinerea (causal agent of grey mould on grapes, kiwifruit, tomatoes, strawberries, etc), Monilinia fructicola (causal agent of brown rot on stonefruit), and Cladosporium cladosporiodes (one of the fungi that can cause sooty mould) were also assessed using the 96-multiwell assay of Wilson et al (10).

[1] = test system: Cladosporium cladosporiodes spores; assay: Spore germination inhibition, 96-multiwell assay; type: cell-based; set-up: key: ****: No germination (score 4); ***: Slight germination (3); **: Moderate germination (2); *: Germination, less than control (1); —: No activity = germination same as the control (score 0); settings: after 24 hours incubation at 19° C.
Method: as §1

[2] = test system: Monilinia fructicola spores; assay: Spore germination inhibition, 96-multiwell assay; type: cell-based; set-up: key: ****: No germination (score 4); ***: Slight germination (3); **: Moderate germination (2); *: Germination, less than control (1); —: No activity = germination same as the control (score 0); settings: after 24 hours incubation at 19° C.
Method: as §1

[3] = test system: cucurbit PM pathogen Sphaerotheca fuliginea; assay: Trial 3 main treatments, PM disease severity on ‘Delica’ squash leaves; type: in vivo
Method: Squash (Cucurbita maxima) cv ‘Delica’ were raised and the first true leaf on each plant was artificially inoculated as in Trial 1.
Treatment applications were normally at 7-day intervals (although 14 and 21 day intervals were also used in Trial 3) and involved spraying all leaves to run-off (approximately 5 ml per leaf) using hand-held mister-bottles. The first application commenced 3-4 days after artificial inoculation (except for elicitor treatments in Trial 3), when the non-inoculated leaves on plants were still largely disease-free, and plants had up to 8 true leaves (i.e. were 5-6 weeks old).
Disease severity on true leaves 1-8 was rated weekly or fortnightly as discussed above.
Data were analysed as a repeated measures design (RMD) to determine the treatment effect on disease severity over time. Treatment differences at final disease assessment were also assessed as a randomised block design (RBD), by analysis of variance (ANOVA), with means separation by Fisher's Least Significant Difference (LSD) (P<0.05), using SAS software, version 8.01 TS (SAS Institute, Cary, N.C.).
Eight replicate squash plants per treatment (1 replicate per block) were assessed.
The first true leaf of each plant was artificially inoculated with PM, while all other leaves on the plant were allowed to infect naturally. Elicitors (treatments 13-15) were first applied 5 days before artificial inoculation, to allow time for induction of host defences prior to advent of the PM fungus, and every three weeks thereafter. […] All other treatments were first applied 3 days after artificial inoculation and at weekly (treatments 1-4, 7-8, 10-12, 16-20), fortnightly (treatment 5), or 3 weekly intervals (treatments 6 and 9) thereafter.
Treatment effect over time at 0, 2, 4, 6 and 7 weeks was assessed.

[4] = test system: Botrytis cinerea, Cladosporium cladosporiodes, and Monilinia fructicola spores; assay: Spore germination inhibition, overall rating over the three fungi; type: cell-based; settings: sum of all the germination scores; maximum 12 (greatest inhibition), minimum 0
Method: as §1
The Overall Rating is the sum of all the germination scores for each treatment (maximum possible value: 12 (greatest inhibition); minimum: 0 (no inhibition)).

[5] = test system: Squash (Cucurbita maxima) cv ‘Delica’; assay: Trial 3 leaf health rating and phyto-toxicity; type: in vivo; set-up: key: A: Perfect condition - no abiotic or biotic blemishes.; B: Small blemishes e.g. chlorotic patches, rubbing, insect damage; C: Severe/advanced chlorosis, necrosis or leaf distortion; D: Leaf dead
Method: Qualitative assessments of leaf health/condition were made at the same time as disease severity assessments, using the arbitrary scale described below.
Leaf health ratings were assessed using the criteria described in Table 4. Each value presented in Table 12 is a median value rather than an arithmetic mean.

[6] = test system: cucurbit PM pathogen Sphaerotheca fuliginea; assay: Trial 3 additional treatments, PM disease severity on ‘Delica’ squash leaves; type: in vivo; settings: non-inoculated leaves (FIG. 7)
Excerpt: Treatments were first applied 3 days after artificial inoculation of leaf 1, and at weekly intervals thereafter. There were 4 replicates per treatment, with two replicates per table per glasshouse.

| Molecule | Germination inhibition, Botrytis (Botrytis cinerea spores) | Germination inhibition, Clado. [1] | Germination inhibition, Monilinia [2] | course of PM disease over time ([3]; inoculated leaves) | PM Disease Rating ([3]; inoculated leaves, 0 wks, scale 0-6 of Table 1) | PM Disease Rating ([3]; inoculated leaves, 2 wks) | PM Disease Rating ([3]; inoculated leaves, 4 wks) | PM Disease Rating ([3]; inoculated leaves, 6 wks) | PM Disease Rating ([3]; inoculated leaves, 7 wks) | course of natural PM infections over time ([3]; non-inoculated leaves, 0-7 weeks) | PM Disease Rating ([3]; non-inoculated leaves, 0 wks, scale 0-6 of Table 1) | PM Disease Rating ([3]; non-inoculated leaves, 2 wks) | PM Disease Rating ([3]; non-inoculated leaves, 4 wks) | PM Disease Rating ([3]; non-inoculated leaves, 6 wks) | PM Disease Rating ([3]; non-inoculated leaves, 7 wks) | Overall Rating [4] | leaf health rating ([5]; Trial 3 main, non-inoculated leaves after 7 weeks of treatment application, median value) | course of PM disease severity over time [6] | leaf health rating ([5]; Trial 3 additional, non-inoculated leaves, after 7 weeks) |
| --- | --- | --- | --- | --- | --- | --- | --- | --- | --- | --- | --- | --- | --- | --- | --- | --- | --- | --- | --- |
| CCCCC/C=C\C/C=C\CCCCCCCC(=O)O [Linol, Linoleic acid] | — | — | — | disease increased steadily throughout the trial | 2.63 | 5.25 | 5.88 | 6.00 | 6.00 | rapid breakdown in protective activity | 0.63 | 2.77 | 5.56 | 6.00 | 6.00 | 0 | F (More than 20% of the leaf area is dead) |  |  |
| Di-glycerine-mono-laurate [DGML] | ** | **** | **** |  |  |  |  |  |  |  |  |  |  |  |  | 10 |  | increased significantly over time | E |
